# Results: publication PMC12521730, “Quantitative dual-isotope preclinical SPECT/CT imaging and biodistribution of the mercury-197m/g theranostic pair with [^197m/gHg]HgCl2 and a [^197m/gHg]Hg-tetrathiol complex as a platform for radiopharmaceutical development” (EJNMMI Radiopharmacy and Chemistry, 2025)
# Assay: Ex vivo biodistribution (gamma counter)
# Type: in vivo, healthy male C57BL/6 mice
# Settings: Hg-197g, 2 h post administration
# Experimental: For animal injection, the tracer was prepared at high molar activity. Radiolabeling of H4Tetrathiol (10^–2 M in DMSO; 40 μL for imaging, 20 μL for bioD) (or DMSO, for [^197m/gHg]HgCl2 mice) with [^197m/gHg]HgCl2 (imaging: 26.7 MBq total m + g, 62 μL; bioD: 13.04 MBq total m + g, 31 μL) was performed in a mixture of ammonium acetate buffer (1 M; pH 7; 198 μL for imaging or 149 μL for bioD) and 6 M NaOH (72 μL or 38 μL required to achieve a pH of 7.5 after addition of activity, for imaging or BioD labeling, respectively). The reaction was allowed to stand for 1 h at 37 °C and quantitative (> 99%) non-isolated percentage radiochemical yield (%RCY) was confirmed via the iTLC methods mentioned above. Further, 100 µL of the reaction was diluted with 50 µL of PBS Tween-20 (0.01 M sodium phosphate, 0.15 M NaCl, 0.05% Tween-20) for imaging mice, or 50 µL of the reaction was diluted with 100 µL of PBS Tween-20 for BioD mice. The tracers were prepared immediately before injection to avoid radiolysis and minimize the tracer loss to any surfaces due to its lipophilicity. The injected doses of each isomer, ^197mHg and ^197gHg, were quantified by measuring an aliquot of known volume of each tracer preparation via HPGe gamma spectroscopy and decay corrected for time of injection using the Eqs. (1) and (2).
# The study was conducted in compliance with the guidelines set by the Canadian Council on Animal Care (CCAC) and approved by the Animal Care Committee (ACC) at the University of British Columbia (A20-0132). A total of eight healthy male C57BL/6 mice weighing approximately 30 g for group 1 and 25 g for group 2 were used in the study. The mice were divided into two experimental groups: group 1 (n = 4) received free [^197m/gHg]HgCl2, while group 2 (n = 4) received [^197m/gHg]Hg-Tetrathiol. Within each group, one mouse was allocated for imaging, while the rest were designated for ex vivo biodistribution analysis. For SPECT imaging, the designated mice were anesthetized using isoflurane via a precision vaporizer. […] Once anesthetized, each imaging mouse received an intravenous (IV) injection via the lateral tail vein of 150 μL of [^197m/gHg]HgCl2 (0.492 MBq ^197mHg + 3.171 MBq ^197gHg) or [^197m/gHg]Hg-Tetrathiol (0.899 MBq ^197mHg + 4.230 MBq ^197gHg) in PBS Tween-20 (0.01 M Na Phosphate, 0.15 M NaCl, 0.05% Tween-20).
# Mice received an IV injection of [^197m/gHg]HgCl2 (0.275 MBq ^197mHg + 1.758 MBq ^197gHg, 150 μL) or [^197m/gHg]Hg-Tetrathiol (0.384 MBq ^197mHg + 1.733 MBq ^197gHg, 150 μL) (n = 3 per group) via the lateral tail vein using a Tailveiner restrainer. After the injection, the mice were returned to their experimental cages and allowed unrestricted movement. Biodistribution studies were conducted 2 h after administration. Mice were humanely euthanized with an overdose of isoflurane followed by cardiac puncture to collect blood pool activity. The organs of interest were fully extracted, cleaned of blood without rinsing, weighed, and analysed for radioactivity using a calibrated gamma counter with the 55–93 keV energy window for ^197gHg and the 110–160 keV energy window for ^197mHg (Packard Cobra II, Perkin Elmer, Waltham, MA, USA). The stomach and intestines were carefully cleaned prior to analysis to remove residual contents. For tissues and fluids that could not be fully removed (muscle, blood and bone) activity values were extrapolated based on standardised organ weights for age- and sex-matched mice tables to ensure accurate normalization (Davies and Morris [1993]; Foster et al. [2014]). The stomach and whole intestines were cleaned before analysis. The radioactivity measurements were decay corrected for time of injection using the Eqs. (1) and (2). The results are reported as the percentage of the injected activity per gram of tissue (%IA/g) and percentage of the injected activity per tissue (%IA/organ).
smiles,measurement,value
[Cl][Hg][Cl] [[^197m/gHg]HgCl2],Animal 1 (%IA/Organ): bladder,0.10 %IA/Organ
same,Animal 1 (%IA/Organ): blood,7.19 %IA/Organ
same,Animal 1 (%IA/Organ): bone,4.96 %IA/Organ
same,Animal 1 (%IA/Organ): brain,0.08 %IA/Organ
same,Animal 1 (%IA/Organ): feces,0.04 %IA/Organ
same,Animal 1 (%IA/Organ): heart,0.39 %IA/Organ
same,Animal 1 (%IA/Organ): kidneys,51.84 %IA/Organ
same,Animal 1 (%IA/Organ): large intestine,0.85 %IA/Organ
same,Animal 1 (%IA/Organ): liver,11.53 %IA/Organ
same,Animal 1 (%IA/Organ): lungs,0.87 %IA/Organ
same,Animal 1 (%IA/Organ): muscle,12.34 %IA/Organ
same,Animal 1 (%IA/Organ): pancreas,0.32 %IA/Organ
same,Animal 1 (%IA/Organ): small intestine,0.99 %IA/Organ
same,Animal 1 (%IA/Organ): spleen,0.47 %IA/Organ
same,Animal 1 (%IA/Organ): stomach,0.29 %IA/Organ
same,Animal 1 (%IA/Organ): tail,4.00 %IA/Organ
same,Animal 1 (%IA/Organ): urine,1.57 %IA/Organ
same,Animal 1 (%IA/g) g: bladder,1.28 %IA/g
same,Animal 1 (%IA/g) g: blood,4.25 %IA/g
same,Animal 1 (%IA/g) g: bone,2.26 %IA/g
same,Animal 1 (%IA/g) g: brain,0.19 %IA/g
same,Animal 1 (%IA/g) g: feces,0.96 %IA/g
same,Animal 1 (%IA/g) g: heart,2.62 %IA/g
same,Animal 1 (%IA/g) g: kidneys,110 %IA/g
same,Animal 1 (%IA/g) g: large intestine,3.42 %IA/g
same,Animal 1 (%IA/g) g: lungs,5.68 %IA/g
same,Animal 1 (%IA/g) g: muscle,0.94 %IA/g
same,Animal 1 (%IA/g) g: pancreas,1.76 %IA/g
same,Animal 1 (%IA/g) g: small intestine,4.46 %IA/g
same,Animal 1 (%IA/g) g: spleen,5.78 %IA/g
same,Animal 1 (%IA/g) g: stomach,2.45 %IA/g
same,Animal 1 (%IA/g) g: tail,7.68 %IA/g
same,Animal 1 (%IA/g) g: urine,5.10 %IA/g
same,Animal 2 (%IA/Organ): bladder,0.06 %IA/Organ
same,Animal 2 (%IA/Organ): blood,5.88 %IA/Organ
same,Animal 2 (%IA/Organ): bone,4.05 %IA/Organ
same,Animal 2 (%IA/Organ): brain,0.04 %IA/Organ
same,Animal 2 (%IA/Organ): feces,0.02 %IA/Organ
same,Animal 2 (%IA/Organ): heart,0.21 %IA/Organ
same,Animal 2 (%IA/Organ): kidneys,44.76 %IA/Organ
same,Animal 2 (%IA/Organ): large intestine,0.60 %IA/Organ
same,Animal 2 (%IA/Organ): liver,6.34 %IA/Organ
same,Animal 2 (%IA/Organ): lungs,0.50 %IA/Organ
same,Animal 2 (%IA/Organ): muscle,6.72 %IA/Organ
same,Animal 2 (%IA/Organ): pancreas,0.22 %IA/Organ
same,Animal 2 (%IA/Organ): small intestine,0.66 %IA/Organ
same,Animal 2 (%IA/Organ): spleen,0.25 %IA/Organ
same,Animal 2 (%IA/Organ): stomach,0.18 %IA/Organ
same,Animal 2 (%IA/Organ): tail,2.34 %IA/Organ
same,Animal 2 (%IA/Organ): urine,0.04 %IA/Organ
same,Animal 2 (%IA/g) g: bladder,2.73 %IA/g
same,Animal 2 (%IA/g) g: blood,3.53 %IA/g
same,Animal 2 (%IA/g) g: bone,1.87 %IA/g
same,Animal 2 (%IA/g) g: brain,0.10 %IA/g
same,Animal 2 (%IA/g) g: feces,0.42 %IA/g
same,Animal 2 (%IA/g) g: heart,1.60 %IA/g
same,Animal 2 (%IA/g) g: kidneys,107 %IA/g
same,Animal 2 (%IA/g) g: large intestine,2.61 %IA/g
same,Animal 2 (%IA/g) g: liver,5.13 %IA/g
same,Animal 2 (%IA/g) g: lungs,3.11 %IA/g
same,Animal 2 (%IA/g) g: muscle,0.52 %IA/g
same,Animal 2 (%IA/g) g: pancreas,1.31 %IA/g
same,Animal 2 (%IA/g) g: small intestine,2.72 %IA/g
same,Animal 2 (%IA/g) g: spleen,3.43 %IA/g
same,Animal 2 (%IA/g) g: stomach,1.70 %IA/g
same,Animal 2 (%IA/g) g: tail,4.62 %IA/g
same,Animal 2 (%IA/g) g: urine,3.81 %IA/g
same,Animal 3 (%IA/Organ): bladder,0.03 %IA/Organ
same,Animal 3 (%IA/Organ): blood,5.49 %IA/Organ
same,Animal 3 (%IA/Organ): bone,3.89 %IA/Organ
same,Animal 3 (%IA/Organ): brain,0.05 %IA/Organ
same,Animal 3 (%IA/Organ): feces,0.09 %IA/Organ
same,Animal 3 (%IA/Organ): heart,0.20 %IA/Organ
same,Animal 3 (%IA/Organ): kidneys,46.92 %IA/Organ
same,Animal 3 (%IA/Organ): large intestine,0.43 %IA/Organ
same,Animal 3 (%IA/Organ): liver,6.61 %IA/Organ
same,Animal 3 (%IA/Organ): lungs,0.50 %IA/Organ
same,Animal 3 (%IA/Organ): muscle,6.84 %IA/Organ
same,Animal 3 (%IA/Organ): pancreas,0.25 %IA/Organ
same,Animal 3 (%IA/Organ): small intestine,0.62 %IA/Organ
same,Animal 3 (%IA/Organ): spleen,0.22 %IA/Organ
same,Animal 3 (%IA/Organ): stomach,0.18 %IA/Organ
same,Animal 3 (%IA/Organ): tail,2.23 %IA/Organ
same,Animal 3 (%IA/Organ): urine,0.63 %IA/Organ
same,Animal 3 (%IA/g) g: bladder,1.50 %IA/g
same,Animal 3 (%IA/g) g: blood,3.33 %IA/g
same,Animal 3 (%IA/g) g: bone,1.79 %IA/g
same,Animal 3 (%IA/g) g: brain,0.11 %IA/g
same,Animal 3 (%IA/g) g: feces,2.78 %IA/g
same,Animal 3 (%IA/g) g: heart,1.46 %IA/g
same,Animal 3 (%IA/g) g: kidneys,108 %IA/g
same,Animal 3 (%IA/g) g: large intestine,2.41 %IA/g
same,Animal 3 (%IA/g) g: liver,4.96 %IA/g
same,Animal 3 (%IA/g) g: lungs,3.44 %IA/g
same,Animal 3 (%IA/g) g: muscle,0.53 %IA/g
same,Animal 3 (%IA/g) g: pancreas,1.39 %IA/g
same,Animal 3 (%IA/g) g: small intestine,2.89 %IA/g
same,Animal 3 (%IA/g) g: spleen,2.94 %IA/g
same,Animal 3 (%IA/g) g: stomach,1.57 %IA/g
same,Animal 3 (%IA/g) g: tail,4.40 %IA/g
same,Animal 3 (%IA/g) g: urine,3.90 %IA/g
same,Animal 4 (%IA/Organ): bladder,0.07 %IA/Organ
same,Animal 4 (%IA/Organ): blood,4.67 %IA/Organ
same,Animal 4 (%IA/Organ): bone,3.74 %IA/Organ
same,Animal 4 (%IA/Organ): brain,0.05 %IA/Organ
same,Animal 4 (%IA/Organ): feces,0.07 %IA/Organ
same,Animal 4 (%IA/Organ): heart,0.21 %IA/Organ
same,Animal 4 (%IA/Organ): kidneys,49.72 %IA/Organ
same,Animal 4 (%IA/Organ): large intestine,0.41 %IA/Organ
same,Animal 4 (%IA/Organ): liver,6.62 %IA/Organ
same,Animal 4 (%IA/Organ): lungs,0.46 %IA/Organ
same,Animal 4 (%IA/Organ): muscle,6.43 %IA/Organ
same,Animal 4 (%IA/Organ): pancreas,0.20 %IA/Organ
same,Animal 4 (%IA/Organ): small intestine,0.54 %IA/Organ
same,Animal 4 (%IA/Organ): spleen,0.32 %IA/Organ
same,Animal 4 (%IA/Organ): stomach,0.17 %IA/Organ
same,Animal 4 (%IA/Organ): tail,1.77 %IA/Organ
same,Animal 4 (%IA/Organ): urine,0.38 %IA/Organ
same,Animal 4 (%IA/g) g: bladder,2.90 %IA/g
same,Animal 4 (%IA/g) g: blood,3.00 %IA/g
same,Animal 4 (%IA/g) g: bone,1.85 %IA/g
same,Animal 4 (%IA/g) g: brain,0.12 %IA/g
same,Animal 4 (%IA/g) g: feces,1.01 %IA/g
same,Animal 4 (%IA/g) g: heart,1.49 %IA/g
